From patent publication US12428406B2 (PMV Pharmaceuticals, Inc., priority 2019, dated 2025)

Biological target: T1, p53 Y220C (Homo sapiens, UniProt P04637, Y220C)
T1 construct: The recombinant protein was a truncation mutant containing only amino acids 94-312 of p53; made in house; host or cells: E. coli
Test: In vitro DNA binding activity assay (HTRF / TR-FRET): stabilization of p53 Y220C and increase of its DNA binding activity
Type: biochemical
Settings: recombinant His-tagged p53 Y220C DNA binding domain (aa 94-312), biotin-labeled consensus DNA, incubated at 27° C. or 29° C. for 60 min
Method in brief: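 Compound effect on DNA binding of recombinant His-p53 Y220C (E. coli) to biotin-labeled consensus DNA, expressed as SC150, the concentration giving 50% increase versus untreated. Serial 3-fold DMSO dilutions of 4.5 mM stocks; room-temperature steps of 15 then 20 min.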

T1 sequence (P04637 94-312, change not shown): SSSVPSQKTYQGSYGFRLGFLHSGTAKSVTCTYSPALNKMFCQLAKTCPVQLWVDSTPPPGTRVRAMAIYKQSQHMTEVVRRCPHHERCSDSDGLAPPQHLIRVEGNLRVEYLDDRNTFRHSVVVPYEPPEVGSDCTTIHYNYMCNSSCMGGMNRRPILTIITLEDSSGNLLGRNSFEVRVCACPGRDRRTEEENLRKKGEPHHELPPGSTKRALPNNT

Structure (SMILES) | SC150 (concentration of the compound required to increase the DNA binding activity by 50%)
CNC(=O)c1ccc(NCC#Cc2cc3c(N[C@H]4CC[C@H](N(C)CCOC)CC4)cccc3n2CC(F)(F)F)c(OC)c1 [Compound 151A, 3-methoxy-N-methyl-4-{[3-(4-{[(1R,4R)-4-[(2-methoxyethyl) (methyl)amino]cyclo-hexyl]amino}-1-(2,2,2-trifluoroethyl)-1H-indol-2-yl)prop-2-yn-1-yl]amino}benzamide] | + (+ = 0 μM ≤ SC150 < 0.05 μM)
CNC(=O)c1ccc(NCC#Cc2cc3c(NC4CCN(CC(O)COC)CC4)cccc3n2CC(F)(F)F)c(OCCF)c1 (stereo not drawn) [Compound 652A, 3-(2-fluoroethoxy)-4-{[3-(4-{[1-(2-hydroxy-3-methoxypropyl)piperidin-4-yl]amino}-1-(2,2,2-trifluoroethyl)-1H-indol-2-yl)prop-2-yn-1-yl]amino}-N-methylbenzamide] | + (+ = 0 μM ≤ SC150 < 0.05 μM)
COc1cc(S(C)(=O)=O)ccc1NCC#Cc1cc2c(NC3CCN(CC(C)OC(=O)C(C)C)CC3)cccc2n1CC(F)(F)F (racemic) [Compound 591A, 1-{4-[(2-{3-[(4-methanesulfonyl-2-methoxyphenyl)amino]prop-1-yn-1-yl}-1-(2,2,2-trifluoroethyl)-1H-indol-4-yl)amino]piperidin-1-yl}propan-2-yl 2-methylpropanoate] | + (+ = 0 μM ≤ SC150 < 0.05 μM)
COCC(O)CN1CCC(Nc2cccc3c2cc(C#CCNc2ccc(S(C)(=O)=O)cc2C)n3CC(F)(F)F)CC1 (stereo not drawn) [Compound 703A, 1-{4-[(2-{3-[(4-methanesulfonyl-2-methylphenyl)amino]prop-1-yn-1-yl}-1-(2,2,2-trifluoroethyl)-1H-indol-4-yl)amino]piperidin-1-yl}-3-methoxypropan-2-ol] | + (+ = 0 μM ≤ SC150 < 0.05 μM)
COc1cc(S(C)(=O)=O)ccc1NCC#Cc1cc2c(N[C@H]3CCN(C)C[C@H]3F)cccc2n1CC(F)(F)F (stereo in doubt) [Compound 773A, N-[(3R,4S)-3-fluoro-1-methylpiperidin-4-yl]-2-{3-[(4-methanesulfonyl-2-methoxyphenyl)amino]prop-1-yn-1-yl}-1-(2,2,2-trifluoroethyl)-1H-indol-4-amine] | + (+ = 0 μM ≤ SC150 < 0.05 μM)
CNC(=O)c1ccc(NCC#Cc2cc3c(NC4CCC(C#N)CC4)cccc3n2CC(F)(F)F)c(OC)c1 (stereo not drawn) [Compound 33A, 4-[(3-{4-[(4-cyanocyclohexyl)amino]-1-(2,2,2-trifluoroethyl)-1H-indol-2-yl}prop-2-yn-1-yl)amino]-3-methoxy-N-methylbenzamide] | + (+ = 0 μM ≤ SC150 < 0.05 μM)
COc1cc(C(=O)NC(C)C)ccc1NCC#Cc1cc2c(N[C@H]3CCN(C)C[C@H]3F)cccc2n1CC(F)(F)F (racemic) [Compound 817A, rac-4-{[3-(4-{[(3R,4S)-3-fluoro-1-methylpiperidin-4-yl]amino}-1-(2,2,2-trifluoroethyl)-1H-indol-2-yl)prop-2-yn-1-yl]amino}-3-methoxy-N-(propan-2-yl)benzamide] | + (+ = 0 μM ≤ SC150 < 0.05 μM)
CNC(=O)c1ccc(NCC#Cc2cc3c(NC4CCN(CC(O)COC)CC4)cccc3n2CC(F)(F)F)c(OCF)c1 (stereo not drawn) [Compound 663A, 3-(fluoromethoxy)-4-{[3-(4-{[1-(2-hydroxy-3-methoxypropyl)piperidin-4-yl]amino}-1-(2,2,2-trifluoroethyl)-1H-indol-2-yl)prop-2-yn-1-yl]amino}-N-methylbenzamide] | + (+ = 0 μM ≤ SC150 < 0.05 μM)
COc1cc(C(=O)O)ccc1NCC#Cc1cc2c(N[C@@H]3CCN(C(C)C)C[C@@H]3F)cccc2n1CC(F)(F)F [Compound 809A, 4-{[3-(4-{[(3S,4R)-3-fluoro-1-(propan-2-yl)piperidin-4-yl]amino}-1-(2,2,2-trifluoroethyl)-1H-indol-2-yl)prop-2-yn-1-yl]amino}-3-methoxybenzoic acid] | + (+ = 0 μM ≤ SC150 < 0.05 μM)
CNc1cc(S(C)(=O)=O)ccc1OCC#Cc1cc2c(NC3CCN(CC(O)COC)CC3)cccc2n1CC(F)(F)F (stereo not drawn) [Compound 651A, l-{4-[(2-{3-[4-methanesulfonyl-2-(methylamino)phenoxy]prop-1-yn-1-yl}-1-(2,2,2-trifluoroethyl)-1H-indol-4-yl)amino]piperidin-1-yl}-3-methoxypropan-2-ol] | + (+ = 0 μM ≤ SC150 < 0.05 μM)
CCC(=O)NS(=O)(=O)c1ccc(NCC#Cc2cc3c(NC4CCN(CC(COC(=O)CC)OC(=O)CC)CC4)cccc3n2CC(F)(F)F)c(OC)c1 (stereo not drawn) [Compound 628A, 1-(4-{[2-(3-{[2-methoxy-4-(propanamidosulfonyl)phenyl]amino}prop-1-yn-1-yl)-1-(2,2,2-trifluoroethyl)-1H-indol-4-yl]amino}piperidin-1-yl)-3-(propanoyloxy)propan-2-yl propanoate] | + (+ = 0 μM ≤ SC150 < 0.05 μM)
CNC(=O)c1ccc(NCC#Cc2cc3c(N[C@H]4CC[C@H](N(C)C)CC4)cccc3n2CC(F)(F)F)c(OC)c1 [Compound 74A, 3-methoxy-N-methyl-4-{[3-(4-{[(1R,4R)-4-(dimethylamino)cyclohexyl]amino}-1-(2,2,2-trifluoroethyl)-1H-indol-2-yl)prop-2-yn-1-yl]amino}benzamide] | + (+ = 0 μM ≤ SC150 < 0.05 μM)

More lines, now with the values ahead:

SC150 (concentration of the compound required to increase the DNA binding activity by 50%) | Structure (SMILES)
+ (+ = 0 μM ≤ SC150 < 0.05 μM) | COCCN(C)[C@H]1CC[C@H](Nc2cccc3c2cc(C#CCNc2ccc(S(C)(=O)=O)cc2OC)n3CC(F)(F)F)CC1 [Compound 57A, (1R,4R)-N^4-(2-{3-[(4-methanesulfonyl-2-methoxyphenyl)amino]prop-1-yn-1-yl}-1-(2,2,2-trifluoro-ethyl)-1H-indol-4-yl)-N^1-(2-methoxyethyl)-N^1-methylcyclohexane-1,4-diamine]
+ (+ = 0 μM ≤ SC150 < 0.05 μM) | COc1cc(S(=O)(=O)NC2CCOCC2)ccc1NCC#Cc1cc2c(NC3CCS(=O)(=O)CC3)cccc2n1CC(F)(F)F [Compound 1041A, 4-[(3-{4-[(1,1-dioxo-1λ^6-thian-4-yl)amino]-1-(2,2,2-trifluoroethyl)-1H-indol-2-yl}prop-2-yn-1-yl)amino]-3-methoxy-N-(oxan-4-yl)benzene-1-sulfonamide]
+ (+ = 0 μM ≤ SC150 < 0.05 μM) | COc1cc(S(N)(=O)=O)ccc1NCC#Cc1cc2c(N[C@H]3CC[C@H](N4CC5(CCC5)C4)CC3)cccc2n1CC(F)(F)F [Compound 198A, 3-methoxy-4-{[3-(4-{[(1R,4R)-4-{2-azaspiro[3.3]heptan-2-yl}cyclohexyl]amino}-1-(2,2,2-trifluoroethyl)-1H-indol-2-yl)prop-2-yn-1-yl]amino}benzene-1-sulfonamide]
+ (+ = 0 μM ≤ SC150 < 0.05 μM) | CCOc1cc(S(C)(=O)=O)ccc1NCC#Cc1cc2c(N[C@H]3CC[C@H](N4CC5(CCOCC5)C4)CC3)cccc2n1CC(F)(F)F [Compound 329A, N-((1R,4R)-4-(7-oxa-2-azaspiro[3.5]nonan-2-yl)cyclohexyl)-2-(3-((2-ethoxy-4-(methylsulfonyl)phenyl)amino)prop-1-yn-1-yl)-1-(2,2,2-trifluoroethyl)-1H-indol-4-amine]
+ (+ = 0 μM ≤ SC150 < 0.05 μM) | COc1cc(S(N)(=O)=O)ccc1NCC#Cc1cc2c(N[C@H]3CC[C@H](N4CCCC(OC)C4)CC3)cccc2n1CC(F)(F)F (stereo partly drawn) [Compound 358A, 3-methoxy-4-{[3-(4-{[(1R,4R)-4-(3-methoxypiperidin-1-yl)cyclohexyl]amino}-1-(2,2,2-trifluoroethyl)-1H-indol-2-yl)prop-2-yn-1-yl]amino}benzene-1-sulfonamide]
+ (+ = 0 μM ≤ SC150 < 0.05 μM) | COCCOc1cc(S(C)(=O)=O)ccc1NCC#Cc1cc2c(N[C@H]3CC[C@@H](N4CC5(COC5)C4)CC3)cccc2n1CC(F)(F)F [Compound 221A, 2-(3-{[4-methane-sulfonyl-2-(2-methoxyethoxy)phenyl]amino}prop-1-yn-1-yl)-N-[(1S,4S)-4-{2-oxa-6-azaspiro[3.3]heptan-6-yl}cyclohexyl]-1-(2,2,2-trifluoroethyl)-1H-indol-4-amine]
+ (+ = 0 μM ≤ SC150 < 0.05 μM) | COc1cc(S(N)(=O)=O)ccc1NCC#Cc1cc2c(NC3CCN(C[C@@H]4COC(C)(C)O4)CC3)cccc2n1CC(F)(F)F [Compound 568A, 4-[(3-{4-[(1-{[(4R)-2,2-dimethyl-1,3-dioxolan-4-yl]methyl}piperidin-4-yl)amino]-1-(2,2,2-trifluoroethyl)-1H-indol-2-yl}prop-2-yn-1-yl)amino]-3-methoxybenzene-1-sulfonamide]
+ (+ = 0 μM ≤ SC150 < 0.05 μM) | CCOc1cc(S(C)(=O)=O)ccc1NCC#Cc1cc2c(N[C@H]3CC[C@H](N4CC5(COC5)C4)CC3)cccc2n1CC(F)(F)F [Compound 234A, 2-{3-[(2-ethoxy-4-methanesulfonylphenyl)amino]prop-1-yn-1-yl}-N-[(1R,4R)-4-{2-oxa-6-azaspiro[3.3]heptan-6-yl}cyclohexyl]-1-(2,2,2-trifluoroethyl)-1H-indol-4-amine]
+ (+ = 0 μM ≤ SC150 < 0.05 μM) | CCC(=O)NS(=O)(=O)c1ccc(NCC#Cc2cc3c(N[C@H]4CC[C@@H](N5CC6(COC6)C5)CC4)cccc3n2CC(F)(F)F)c(OC)c1 [Compound 207A, N-(3-methoxy-4-{[3-(4-{[(1S,4S)-4-{2-oxa-6-azaspiro[3.3]heptan-6-yl}cyclo-hexyl]amino}-1-(2,2,2-trifluoroethyl)-1H-indol-2-yl)prop-2-yn-1-yl]amino}benzene-sulfonyl)propanamide]
